Earlier results on one compound are cited in article PMC7998731, “Pharmacokinetic Characterization of Supinoxin and Its Physiologically Based Pharmacokinetic Modeling in Rats” (Pharmaceutics, 2021).

The test system of this data set is advanced triple-negative breast cancer. On the set-up: method as in doi:10.1200/JCO.2018.36.15_suppl.1097. The following applies: cited from earlier work.

Consider `COc1cc(OC)cc(N2CCN(C(=O)Nc3nc4cc(F)ccc4nc3OC)CC2)c1` [supinoxin, 1-(3,5-Dimethoxyphenyl)-4-[(6-Fluoro-2-Methoxyquinoxalin-3-yl) Aminocarbonyl] Piperazine], for which the “safety and tolerability of the suggested dose” value was “safe and well tolerated”. For the setting “after two cycles of therapy”, the “patients with stable disease” value is reported as “five of the 11 patients”. In addition, the tumor reduction (one subject, after two cycles of therapy) is 18.2%.
